Target: T1, tyrosinekinase du récepteur de l'EGF (Epidermal Growth Factor) (Homo sapiens, UniProt P00533)
T1 construct: On utilise des membranes de cellules A431 (ATCC CRL 1555) comme source de récepteurs de l'EGF; host or cells: A431 cell membranes
Experiment: Inhibition of EGF receptor tyrosine kinase (A431 cell membranes, 32P incorporation into poly(Glu, Ala, Tyr 6:3:1))
Format: biochemical
Details: A431 cell membranes (ATCC CRL 1555); samples containing substrate poly(Glu, Ala, Tyr 6:3:1) and EGF; 15 minutes at 30°C; dilution series starting at 51 microgrammes/ml; read-out: CI₅₀ (converted)
Procedure: Mesure de l'inhibition de la tyrosinekinase du récepteur de l'EGF (Epidermal Growth Factor).
Cette lignée cellulaire exprime à sa surface un grand nombre de récepteur de l'EGF qui possèdent une activité tyrosinekinase.
Ces cellules sont préincubées avec ou sans EGF (1000 nM) pendant 15 minutes et ajoutées au tampon HEPES (acide N-2-hydroxyéthyl-piperazine N'-2-éthanesulfonique) correspondant (avec ou sans EGP) et contenant des ions Mg²⁺ (10 mM) et Mn²⁺ (2 mM) 0,2 % de triton X-100, de l'orthovanadate de sodium (20 micromoles) et l'inhibiteur.
Des échantillons contenant ou ne contenant pas le substrat poly(Glu, Ala, Tyr 6 : 3 : 1) sont préparés. On initie la réaction par addition de [gamma³²P] ATP (32 micromoles). Après incubation pendant 15 minutes à 30°C les échantillons sont précipités à l'aide d'acide […] à 10 %, filtrés sur membrane Millipore ® et le ³²P incorporé est mesuré avec un compteur de scintillation liquide.

T1 sequence (P00533 25-1210): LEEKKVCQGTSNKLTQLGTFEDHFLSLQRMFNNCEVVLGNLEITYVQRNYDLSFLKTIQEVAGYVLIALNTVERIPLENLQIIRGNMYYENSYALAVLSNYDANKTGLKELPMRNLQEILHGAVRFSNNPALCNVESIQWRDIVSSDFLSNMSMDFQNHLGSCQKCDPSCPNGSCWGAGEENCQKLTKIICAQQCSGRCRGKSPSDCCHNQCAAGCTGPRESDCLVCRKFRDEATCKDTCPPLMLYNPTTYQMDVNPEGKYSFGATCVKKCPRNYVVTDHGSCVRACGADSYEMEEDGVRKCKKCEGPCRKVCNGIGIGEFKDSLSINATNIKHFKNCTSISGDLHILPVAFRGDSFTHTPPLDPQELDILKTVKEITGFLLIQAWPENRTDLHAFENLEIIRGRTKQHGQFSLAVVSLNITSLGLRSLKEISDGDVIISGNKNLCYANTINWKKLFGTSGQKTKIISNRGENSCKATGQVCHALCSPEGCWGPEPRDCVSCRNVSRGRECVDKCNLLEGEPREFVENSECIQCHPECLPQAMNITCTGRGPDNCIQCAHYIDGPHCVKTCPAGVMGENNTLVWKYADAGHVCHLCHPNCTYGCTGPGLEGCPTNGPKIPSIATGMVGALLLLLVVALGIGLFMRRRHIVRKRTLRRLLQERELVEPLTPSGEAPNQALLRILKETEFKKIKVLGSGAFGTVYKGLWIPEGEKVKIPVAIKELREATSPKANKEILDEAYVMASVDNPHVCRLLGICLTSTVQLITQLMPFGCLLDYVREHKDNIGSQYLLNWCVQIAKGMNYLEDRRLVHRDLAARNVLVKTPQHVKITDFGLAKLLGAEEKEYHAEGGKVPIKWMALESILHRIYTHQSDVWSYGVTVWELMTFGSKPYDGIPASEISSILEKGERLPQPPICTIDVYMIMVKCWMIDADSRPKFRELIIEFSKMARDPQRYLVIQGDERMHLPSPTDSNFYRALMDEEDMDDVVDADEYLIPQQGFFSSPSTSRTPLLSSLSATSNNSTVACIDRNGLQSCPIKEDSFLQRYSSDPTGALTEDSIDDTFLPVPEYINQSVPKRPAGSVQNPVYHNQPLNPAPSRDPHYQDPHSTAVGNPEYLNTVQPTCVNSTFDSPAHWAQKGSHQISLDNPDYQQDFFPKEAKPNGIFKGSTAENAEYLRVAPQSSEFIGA

| IC50 | SMILES |
| --- | --- |
| 13.3 µM | Oc1cc2c(cc1O)CC(Cc1ccccc1)NC2 (stereo not drawn) [Produit de l'exemple 1, Bromhydrate du 3-phénylméthyl 1,2,3,4-tétrahydro, isoquinoléïne 6,7-diol] |
| 8.06 µM | Oc1ccc2[nH]c3c(c2c1)CCNC3Cc1ccc(O)c(O)c1 (stereo not drawn) [Produit B, 1,2-benzènediol 4-(2,3,4,9-tétrahydro 6-hydroxy-1H-pyrido[3,4-b]indol 1-yl) méthyl] |

| SMILES | IC50 |
| --- | --- |
| Oc1ccc(CC2NCCc3cc(O)c(O)cc32)cc1O (stereo not drawn) [Produit A, 1-[(3,4-dihydroxyphényl)méthyl] 1,2,3,4-tétrahydro isoquinoléïne 6,7-diol] | 3.83 µM |
